Test systems include NCI-H226 lung; HCT-116 colon; MCF7 breast; LOX IMVI melanoma; SR leukemia; 786-0 renal; NCI/ADR-RES ovarian; RPMI-8226 leukemia; HT29 colon; ACHN renal.
Assay in all cases: DTP human tumour cell line panel, 48 h

In general, GI50 refers to the concentration at which growth is held to half of that of the control. The TGI is the concentration giving total growth inhibition. High values mean less potent growth arrest, low ones more potent growth arrest.

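In this assay, cells in 96-well plates receive the compound at five concentrations for 48 hours. Endpoints are linearly interpolated between the surrounding concentrations. Abbreviation: GI50, concentration required for 50% inhibition of growth. At the TGI there is no net growth.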

Take `O=C(c1ccc2ncc(-c3nc(NC4CC4)ncc3F)n2c1)N1CCOCC1`: the GI50 with NCI-H226 lung is 2.05 µM; in the assay with HCT-116 colon it was 1.23 µM; with MCF7 breast, 2.71 µM; with LOX IMVI melanoma, 1.11 µM; in the assay on SR leukemia, 0.513 µM; in the assay with 786-0 renal, 3.06 µM. Besides, the GI50 in the assay with NCI/ADR-RES ovarian was 2.92 µM; in the assay with RPMI-8226 leukemia it was 1.98 µM; in the assay with HT29 colon it was 2.22 µM; with ACHN renal, 1.56 µM. Further, the TGI in the assay on NCI-H226 lung came to 6.39 µM; in the assay on HCT-116 colon, 10.4 µM; with MCF7 breast, 11 µM; with LOX IMVI melanoma, 41.4 µM; with SR leukemia, 4.15 µM; in the assay with 786-0 renal, 27.5 µM. In addition, the TGI in the assay on NCI/ADR-RES ovarian turned out to be 19.2 µM; in the assay on RPMI-8226 leukemia, 5.32 µM; in the assay on HT29 colon it was 13.1 µM; in the assay on ACHN renal, 12.4 µM.
Turning to `O=c1nc(Nc2cccc(Cl)c2)oc2cc(Cl)oc(=O)c12`, the GI50 in the assay with NCI-H226 lung was 17.1 µM; in the assay with HCT-116 colon it was 10.7 µM; in the assay on MCF7 breast, 4.33 µM; in the assay with LOX IMVI melanoma, 11.9 µM; in the assay on SR leukemia it was 2.88 µM; in the assay on 786-0 renal, 20.2 µM. Further, the GI50 was 13.4 µM in the assay with NCI/ADR-RES ovarian, 4.02 µM in the assay on RPMI-8226 leukemia, 9.39 µM with HT29 colon and 5 µM with ACHN renal. Further, the TGI is 73.6 µM with NCI-H226 lung; 41.3 µM in the assay on HCT-116 colon; 20.9 µM in the assay with MCF7 breast; more than 100 µM with LOX IMVI melanoma; 12.4 µM in the assay on SR leukemia; 66.4 µM in the assay with 786-0 renal. In addition, the TGI in the assay on NCI/ADR-RES ovarian was 70.5 µM; with RPMI-8226 leukemia it was 43.1 µM; in the assay on HT29 colon, 29.3 µM; in the assay on ACHN renal it was 24.8 µM.
For the compound `CCOc1cc2c(NCCCN(CCO)CCO)ncnc2c(OCC)c1OCC`, the TGI in the assay with NCI-H226 lung, in the assay with HCT-116 colon, in the assay with MCF7 breast, in the assay with LOX IMVI melanoma, with SR leukemia and in the assay with 786-0 renal was more than 100 µM throughout. In addition, the TGI in the assay with NCI/ADR-RES ovarian, in the assay with RPMI-8226 leukemia, with HT29 colon and in the assay with ACHN renal was more than 100 µM throughout.
As for `N=C(N=C(N)N)N1CCN(c2ccncc2)CC1`, the GI50 with NCI-H226 lung, with HCT-116 colon, in the assay on MCF7 breast, in the assay with LOX IMVI melanoma, in the assay on SR leukemia and with 786-0 renal was more than 1000 µM each time. In addition, the GI50 in the assay with NCI/ADR-RES ovarian, with RPMI-8226 leukemia, with HT29 colon and with ACHN renal was more than 1000 µM each time. For the same compound, the TGI in the assay on NCI-H226 lung, with HCT-116 colon, in the assay on MCF7 breast, in the assay on LOX IMVI melanoma, in the assay on SR leukemia and in the assay on 786-0 renal was more than 1000 µM each time. Moreover, the TGI in the assay on NCI/ADR-RES ovarian, with RPMI-8226 leukemia, in the assay on HT29 colon and in the assay with ACHN renal was more than 1000 µM in each case.
`Cn1c(=O)c(Oc2ccccc2F)cc2cnc(NC3CCOCC3)nc21`: the GI50 with NCI-H226 lung, in the assay on HCT-116 colon, in the assay on MCF7 breast, with LOX IMVI melanoma, with SR leukemia and with 786-0 renal was more than 25 µM in each case. The GI50 with NCI/ADR-RES ovarian, with RPMI-8226 leukemia, with HT29 colon and with ACHN renal was more than 25 µM throughout. For the same compound, the TGI with NCI-H226 lung, in the assay on HCT-116 colon, in the assay with MCF7 breast, with LOX IMVI melanoma, in the assay with SR leukemia and with 786-0 renal was more than 25 µM each time. The TGI with NCI/ADR-RES ovarian, with RPMI-8226 leukemia, with HT29 colon and in the assay with ACHN renal was more than 25 µM in each case.
Take `NC1CCN(c2nc(Nc3cccc(C(F)(F)F)c3)c3c(=O)[nH]ccc3n2)CC1`: the GI50 with NCI-H226 lung is 1.86 µM; in the assay on HCT-116 colon, 1.09 µM; with MCF7 breast it was 1.35 µM; with LOX IMVI melanoma, 1.33 µM; in the assay on SR leukemia it was 0.774 µM; in the assay with 786-0 renal it was 1.24 µM. Further, the GI50 is 1.87 µM in the assay with NCI/ADR-RES ovarian, 1.91 µM in the assay with RPMI-8226 leukemia, 1.17 µM in the assay with HT29 colon and 0.944 µM in the assay with ACHN renal. Moreover, the TGI was found to be 3.7 µM in the assay with NCI-H226 lung; 2.3 µM in the assay with HCT-116 colon; 3.02 µM in the assay on MCF7 breast; 2.72 µM in the assay on LOX IMVI melanoma; 2.82 µM in the assay with SR leukemia; 2.55 µM in the assay with 786-0 renal. Besides, the TGI with NCI/ADR-RES ovarian is 3.63 µM; with RPMI-8226 leukemia it was 4.84 µM; in the assay with HT29 colon, 4.89 µM; in the assay on ACHN renal, 2.21 µM.
For the compound `CCN1C(=S)N(CC)C2C1NC(=S)N2/N=C/C=C/c1ccccc1` (stereo not given), the GI50 with NCI-H226 lung is 6.73 µM; with HCT-116 colon it was 1.3 µM; in the assay on MCF7 breast it was 0.513 µM; in the assay on LOX IMVI melanoma, 2.81 µM; in the assay on SR leukemia, 0.347 µM; with 786-0 renal, 5.19 µM. In addition, the GI50 was 1.54 µM in the assay with NCI/ADR-RES ovarian, 1.97 µM in the assay on RPMI-8226 leukemia, 0.511 µM with HT29 colon and 4.87 µM with ACHN renal. For the same compound, the TGI came to 24.4 µM in the assay on NCI-H226 lung; 12.4 µM in the assay on HCT-116 colon; 16.4 µM with MCF7 breast; 17 µM in the assay with LOX IMVI melanoma; 5.92 µM with SR leukemia; 19.2 µM with 786-0 renal. For the same compound, the TGI in the assay with NCI/ADR-RES ovarian stood at 12.6 µM; in the assay on RPMI-8226 leukemia, 6.64 µM; in the assay on HT29 colon it was 12.1 µM; with ACHN renal it was 18.9 µM.
Regarding `Cc1nc2sc(C(=O)Nc3cccc4ccccc34)c(N)c2cc1C(=O)c1ccccc1`, the GI50 was 7.71 µM in the assay on NCI-H226 lung; 1.68 µM with HCT-116 colon; 1.53 µM with MCF7 breast; 2.56 µM with LOX IMVI melanoma; 0.632 µM with SR leukemia; 2.38 µM with 786-0 renal. Further, the GI50 in the assay with NCI/ADR-RES ovarian was 1.43 µM; in the assay with RPMI-8226 leukemia, 2.46 µM; in the assay on HT29 colon it was 1.81 µM; in the assay on ACHN renal, 2.73 µM. Moreover, the TGI in the assay on NCI-H226 lung, in the assay with HCT-116 colon, in the assay with MCF7 breast, with LOX IMVI melanoma, with SR leukemia and in the assay with 786-0 renal was more than 50 µM each time. Further, the TGI in the assay on NCI/ADR-RES ovarian, with RPMI-8226 leukemia, in the assay on HT29 colon and in the assay on ACHN renal was more than 50 µM in each case.
